Results as given in patent publication US9853225B2, “Chalcogen-containing organic compound and a use thereof” (JNC CORPORATION, priority 2013, dated 2017).

Tests used:
[1] = Evaluation of thermal stability, TG/DTA; assay type: physicochemical; conditions: heating 5° C. per minute
[2] = Evaluation of chemical stability, UV-Vis spectra of film standing in atmospheric air; assay type: physicochemical; conditions: vacuum-deposited film 100 nanometers, one week in atmospheric air
Source text: A film having a thickness of 100 nanometers formed by performing vacuum deposition of the compound synthesized in Example 4 was allowed to stand for one week in atmospheric air. The results obtained by measuring UV-Vis spectra (device used: Jasco V-570 Spectrometer, made by JASCO Corporation) over time during the period are shown in FIG. 3. […] According to the above, the compound of the present invention is clearly found to be chemically stable too.

[3] = Evaluation of thermal stability, DSC; assay type: physicochemical; conditions: heating 5° C. per minute

| SMILES | 5% weight reduction temperature [1] [°C] | change of UV-Vis spectrum of film [2] | melting point [°C] | phase transition points [3] |
| --- | --- | --- | --- | --- |
| CCCCCCCCCCc1ccc2cc3c(cc2c1)sc1cc2c(cc13)sc1cc3cc(CCCCCCCCCC)ccc3cc12 [Example 4, 3,11-didecyldinaphtho[2,3-d:2′,3′-d′]benzo[1,2-b:4,5-b′]dithiophene] | 426 | no change of the spectrum was observed | 263 to 264 |  |
| CCCCCCCCCCc1ccc2cc3c(cc2c1)sc1cc2cc4c(cc2cc13)sc1cc2cc(CCCCCCCCCC)ccc2cc14 [Example 7] | 450 | no change of the spectrum was observed | ≥ 300 | no phase transition point was observed |
| CCCCCCCCCCc1ccc2cc3c(cc2c1)oc1cc2c(cc13)oc1cc3cc(CCCCCCCCCC)ccc3cc12 [Example 3, 3,11-didecyldinaphtho[2,3-d:2′,3′-d′]benzo[1,2-b:4,5-b′]difuran] |  |  | ≥ 350 |  |
| CCCCCCc1ccc2cc3c(cc2c1)sc1cc2c(cc13)sc1cc3cc(CCCCCC)ccc3cc12 [Example 5, 3,11-dihexyldinaphtho[2,3-d:2′,3′-d′]benzo[1,2-b:4,5-b′]dithiophene] |  |  | > 300 |  |
| CCCCCCCCCCc1ccc2cc3sc4cc5c(cc4c3cc2c1)sc1cc2ccc(CCCCCCCCCC)cc2cc15 [Example 2, 2,10-didecyldinaphtho[2,3-d:2′,3′-d′]benzo[1,2-b:4,5-b′]dithiophene] |  |  | 285 to 286 |  |
| CCCCCCCCCCc1ccc2cc3oc4cc5c(cc4c3cc2c1)oc1cc2ccc(CCCCCCCCCC)cc2cc15 [Example 1, 2,10-didecyldinaphtho[2,3-d:2′,3′-d′]benzo[1,2-b:4,5-b′]difuran] |  |  | 316 to 317 |  |
